This assay deals with T1, 488-GAC (WT) (Mus musculus, UniProt D3Z7P3).
T1 construct: plasmid (residues 72-603 for GAC, 72-674 for KGA); His-tag with thrombin cleavage site (N, cleaved yes); made in house; host or cells: pET23a vector
T1 sequence (D3Z7P3 72-603 isoform D3Z7P3-2): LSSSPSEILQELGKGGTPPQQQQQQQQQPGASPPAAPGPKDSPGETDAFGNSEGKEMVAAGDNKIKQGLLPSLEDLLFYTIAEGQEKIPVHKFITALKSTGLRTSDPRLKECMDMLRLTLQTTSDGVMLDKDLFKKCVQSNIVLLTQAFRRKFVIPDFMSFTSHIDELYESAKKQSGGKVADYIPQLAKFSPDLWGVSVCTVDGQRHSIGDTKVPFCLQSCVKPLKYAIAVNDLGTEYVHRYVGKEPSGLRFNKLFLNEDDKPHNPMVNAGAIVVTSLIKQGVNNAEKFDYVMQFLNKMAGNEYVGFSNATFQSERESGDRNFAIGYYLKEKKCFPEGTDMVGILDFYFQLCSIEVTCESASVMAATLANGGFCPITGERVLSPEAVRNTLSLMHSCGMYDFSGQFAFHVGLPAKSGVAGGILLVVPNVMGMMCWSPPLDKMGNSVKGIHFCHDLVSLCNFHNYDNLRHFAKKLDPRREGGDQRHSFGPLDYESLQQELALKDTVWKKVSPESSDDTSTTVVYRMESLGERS
Briefly: Real-time binding read-out by 488-GAC fluorescence quenching. Conditions: for quenching of 488-GAC fluorescence (direct binding): 10 nM 488-GAC, no QSY 9-GAC. As to the method: Real-time fluorescence monitoring of 488-GAC fluorescence and NADH fluorescence was performed on a Varian Carry Eclipse Fluorometer, whereas small molecule inhibition and binding titrations were performed in a 96-well format using Grenier non-binding 96-well plates in a Tecan Saphire absorbance and fluorescence plate reader. Samples for monitoring real time binding of 968 to 488-GAC were prepared by adding 10 […] (490 nm excitation/520 nm emission). Similarly, this method was replicated for monitoring real time binding of 968 to KGA and mutant forms of GAC, namely 488-D391K-GAC and 488-K316E-D391K-R459E-GAC. Titrations of 968 with mutant forms of GAC were done in triplicate and quantified by the following equation
[formula] where F is the normalized fluorescence at given drug concentration (i.e., F/F0), and Fsat is the normalized fluorescence at saturating concentrations of drug, as shown in FIG. 7A. […] 10 nM WT GAC was added and allowed to equilibrate 2 minutes before beginning to monitor fluorescence of 488-GAC (490 nm excitation, 520 nm emission) and NADH fluorescence (340 nm excitation, 490 nm emission). […] The activity of GAC was indirectly measured by the NADH produced by the added glutamate dehydrogenase, which converts the product of glutaminase activity, glutamate, to α-ketoglutarate and ammonia through reducing NAD^+ to NADH. Because solutions containing glutamine undergo non-enzymatic degradation to glutamate, samples were further analyzed by subtracting the evolved NADH produced by glutaminase in the presence of 968, BPTES, or the equivalent volume of DMSO as a control, by the evolved NADH produced in the absence of glutaminase under identical experimental conditions. Evolved NADH was quantified using a standard curve of freshly prepared NADH (Sigma) in 50 mM Tris-Acetate pH=8.5, 0.1 mM EDTA.
Procedures for the described real-time binding and inhibition assays were adapted for 96-well microtiter format with minor alterations. […] Quenching was quantified by subtracting the normalized fluorescence by one (i.e., 1-F/F0). […]

For the compound `CN(C)c1ccc(C2Nc3ccc4ccccc4c3C3=C2C(=O)CC(C)(C)C3)cc1Br` (stereo not drawn) [compound 968], the “quenching of 488-GAC fluorescence (direct binding)” value is “concentration dependent quenching”. The “binding to 488-labeled GAC (WT)” value (20 nM 488-labeled protein, 968 titration) is reported as “capable of binding”.

As to `O=C(Cc1ccccc1)Nc1nnc(CCSCCc2nnc(NC(=O)Cc3ccccc3)s2)s1` [BPTES], the “quenching of 488-GAC fluorescence (direct binding)” value is listed as “without affecting the fluorescence emission”.

These data come from patent US11046945B2, “Labeled glutaminase proteins, isolated glutaminase protein mutants, methods of use, and kit” (CORNELL UNIVERSITY, priority 2013, dated 2021).
